Experiments:
[1] = Permeability of the compound using immobilized artificial membrane; format: physicochemical
serum albumin = serum albumin (Homo sapiens, UniProt P02768); assay: Binding affinity to human serum albumin by HPLC analysis; format: ADME; conditions: read-out: PB (converted)
Translocator protein = Translocator protein (Rattus norvegicus, UniProt P16257); assay: Displacement of [3H]-PK11195 from TSPO in Sprague-Dawley rat brain homogenates after 90 mins by liquid scintillation counting analysis; format: tissue-based
Chain of Translocator protein (P16257 whole entry, looked up): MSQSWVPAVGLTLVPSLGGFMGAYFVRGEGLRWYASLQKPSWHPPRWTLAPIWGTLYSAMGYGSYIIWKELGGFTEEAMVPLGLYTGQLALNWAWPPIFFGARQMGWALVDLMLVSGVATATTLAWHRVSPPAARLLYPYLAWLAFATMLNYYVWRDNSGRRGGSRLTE

Chain of serum albumin (P02768 whole entry): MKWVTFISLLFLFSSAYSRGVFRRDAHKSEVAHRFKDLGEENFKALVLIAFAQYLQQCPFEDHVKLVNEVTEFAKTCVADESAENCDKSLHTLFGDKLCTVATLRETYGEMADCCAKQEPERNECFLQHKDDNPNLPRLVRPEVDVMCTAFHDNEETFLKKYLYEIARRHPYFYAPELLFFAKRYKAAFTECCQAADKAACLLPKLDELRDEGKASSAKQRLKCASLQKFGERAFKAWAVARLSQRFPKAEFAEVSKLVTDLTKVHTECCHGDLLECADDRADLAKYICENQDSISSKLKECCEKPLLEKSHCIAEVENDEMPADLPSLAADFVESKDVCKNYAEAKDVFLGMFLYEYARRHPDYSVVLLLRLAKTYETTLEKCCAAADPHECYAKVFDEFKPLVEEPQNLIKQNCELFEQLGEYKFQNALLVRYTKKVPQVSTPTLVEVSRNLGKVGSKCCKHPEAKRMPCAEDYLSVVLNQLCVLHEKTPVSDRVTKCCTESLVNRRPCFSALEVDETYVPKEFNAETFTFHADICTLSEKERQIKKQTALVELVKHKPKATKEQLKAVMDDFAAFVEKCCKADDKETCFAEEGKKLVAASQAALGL

SMILES	Pm [1]	fraction unbound (serum albumin)	Ki (Translocator protein) [nM]
O=C(c1cc(-c2ccccc2)c2cc(F)ccc2n1)N1CCOCC1	0.25	0.122	5740
O=C(c1cc(-c2ccccc2)c2cc(I)ccc2n1)N1CCOCC1	0.55	0.0462	29900
O=C(c1cc(-c2ccccc2)c2cccc(I)c2n1)N1CCOCC1	0.41	0.0181	76100
CCC(C)N(C)C(=O)c1cc2ccccc2c(-c2ccccc2Cl)n1 (stereo not drawn) [PK-11195]	0.64	0.0772	–

More lines, in order of falling Ki (Translocator protein), values ahead:

Pm [1]	fraction unbound (serum albumin)	Ki (Translocator protein) [nM]	SMILES
0.55	0.0498	1340	CN(C)C(=O)c1nc2ccccc2c(-c2ccccc2)c1CI
0.26	0.0876	929	O=C(c1cc(-c2ccccc2I)c2ccccc2n1)N1CCOCC1
0.54	0.047	27.8	O=C(c1nc2ccccc2c(-c2ccccc2)c1CI)N1CCOCC1
0.67	0.0591	5.01	CCN(CC)C(=O)c1cc(-c2ccccc2I)c2ccccc2n1

Reference: ChEMBL document CHEMBL3217571, “Structureactivity relationships of novel iodinated quinoline-2-carboxamides for targeting the translocator protein” (Medchemcomm, 2013)
